In test [1] the target is T1, native MDH (malate dehydrogenase) reporter enzyme (Sus scrofa, UniProt P00346).
T1 sequence (P00346 25-338): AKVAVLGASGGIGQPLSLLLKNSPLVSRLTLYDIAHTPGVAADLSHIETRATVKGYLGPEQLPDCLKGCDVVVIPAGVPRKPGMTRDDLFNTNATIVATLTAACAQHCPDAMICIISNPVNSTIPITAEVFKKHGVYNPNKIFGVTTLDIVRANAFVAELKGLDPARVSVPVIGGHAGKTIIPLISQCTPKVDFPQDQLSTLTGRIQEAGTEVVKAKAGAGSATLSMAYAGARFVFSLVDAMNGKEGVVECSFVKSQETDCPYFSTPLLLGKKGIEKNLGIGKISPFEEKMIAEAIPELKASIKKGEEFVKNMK
Briefly: Native MDH enzymatic reporter counter-screen. In kind it is biochemical. On the technique in general: The purpose of a counterscreen is to sort out artefacts and off-target activity.

The target in test [2] is T2, native Rho (rhodanese) reporter enzyme (Bos taurus, UniProt P00586).
T2 sequence (P00586 2-297 limits assumed): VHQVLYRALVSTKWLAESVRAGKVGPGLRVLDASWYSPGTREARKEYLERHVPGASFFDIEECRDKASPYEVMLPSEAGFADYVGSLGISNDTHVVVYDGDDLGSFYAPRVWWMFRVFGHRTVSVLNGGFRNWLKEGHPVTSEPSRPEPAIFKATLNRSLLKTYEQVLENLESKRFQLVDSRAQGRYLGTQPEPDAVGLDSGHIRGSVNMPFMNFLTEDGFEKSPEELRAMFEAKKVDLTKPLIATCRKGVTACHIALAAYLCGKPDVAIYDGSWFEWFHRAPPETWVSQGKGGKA
Briefly: Native Rho enzymatic reporter counter-screen. Type of test: biochemical.

Structures can show the parent of a compound that is named as a salt.

By IC50 is commonly meant the midpoint of a concentration-inhibition curve. Read a low IC50 as higher potency. Turning to `COc1ccc(-c2ccc3cc(C(=O)O)ccc3c2)cc1C12CC3CC(CC(C3)C1)C2` [Compound 3, Adapalene], the IC50 was > 63 µM in test [1] and > 100 µM in test [2]. Turning to `COc1cc(/C=C/C(=O)CC(=O)/C=C/c2ccc(O)c(OC)c2)ccc1O` [Compound 4, Curcumin], the IC50 in test [1] was > 63 µM. As for `C=CC1=C(C)c2cc3[nH]c(cc4nc(cc5[nH]c(cc1n2)c(C)c5CCC(=O)O)C(CCC(=O)O)=C4C)c(C)c3C=C` [Compound 5, Protoporphyrin IX], the IC50 in test [1] was > 63 µM; in test [2], > 100 µM. With `C=C(CC)C(=O)c1ccc(OCC(=O)O)c(Cl)c1Cl` [Compound 6, Ethacrynic acid], the IC50 in test [1] was > 63 µM; in test [2], > 100 µM.

On to `CCCCCCCCCCCCCCCCC(C(=O)O)C(O)(CC(=O)O)C(=O)O` (centres unmarked) [Compound 7, Agaric acid], for which the IC50 is > 63 µM in test [1] and > 100 µM in test [2].

As to `CCCCCCCCCCCCCCCC[N+](C)(C)C` [Compound 11, Hexadecyltrimethylammonium bromide], the IC50 was > 63 µM in test [1] and > 100 µM in test [2]. `O=C(O)C1=CC(=C(c2ccc(O)c(C(=O)O)c2)c2ccc(O)c(C(=O)O)c2)C=CC1=O` [Compound 13, Aurintricarboxylic acid]: the IC50 in test [2] was > 100 µM.

As for `CC1(C)CCC2=C(O1)c1ccccc1C(=O)C2=O` [Compound 15, β-laphachone], in test [1], the IC50 was > 63 µM.

`Cc1cc(C(C#N)c2ccc(Cl)cc2)c(Cl)cc1NC(=O)c1cc(I)cc(I)c1O` (centres unmarked) [Compound 16, Closantel]: in test [2], the half-inhibitory concentration (IC50) was > 100 µM.

In the case of `O=c1c(O)c(-c2ccc(O)c(O)c2)oc2c(O)c(O)cc(O)c12` [Compound 18, Gossypetin], the IC50 in test [1] was > 63 µM. Still for that read-out and setting: under `CCCCCCCCCCCCCCCC(=O)OC[C@H](O)[C@H]1OC(=O)C(O)=C1O` [Compound 20, L-Ascorbyl palmitate] stands > 63 µM; under `CC1=CC(=O)c2c(O)cccc2C1=O` [Compound 21, Plumbagin], > 63 µM. In the case of `C=C(NC(=O)C(=C)NC(=O)c1csc(C2=N[C@@H]3c4csc(n4)[C@H]4NC(=O)c5csc(n5)[C@H]([C@](C)(O)[C@@H](C)O)NC(=O)[C@H]5CSC(=N5)/C(=C/C)NC(=O)[C@H]([C@@H](C)O)NC(=O)c5csc(n5)[C@]3(CC2)NC(=O)[C@H](C)NC(=O)C(=C)NC(=O)[C@H](C)NC(=O)[C@H]([C@@H](C)CC)N[C@@H]2C=Cc3c([C@H](C)O)cc(nc3[C@H]2O)C(=O)O[C@@H]4C)n1)C(N)=O` [Compound 24, Thiostrepton], the values for the IC50 in test [1] and in test [2] were > 63 µM and > 100 µM, respectively. With `CCCCC/C=C\C/C=C\C/C=C\C/C=C\CCCC(=O)O` [Compound 27, Arachidonic acid], the IC50 was > 63 µM in test [1] and > 100 µM in test [2]. Regarding `Oc1c(Cl)cc(Cl)cc1Sc1cc(Cl)cc(Cl)c1O` [Compound 29, Bithionol], the IC50 in test [2] was > 100 µM.

With `CC1=CC(=O)c2ccccc2C1=O` [Compound 30, Menadione], the IC50 in test [1] was > 63 µM. On the same count and under the same terms, under `CN(C)c1ccc(C(=C2C=CC(=[N+](C)C)C=C2)c2ccc(N(C)C)cc2)cc1` [Compound 34, Crystal violet] stands > 63 µM; under `O=C1c2ccccc2C(=O)c2c(O)c(O)cc(O)c21` [Compound 37, Purpurin], > 63 µM. Same read-out and setting: in the case of `C=C1CC[C@H](O)C/C1=C/C=C1\CCC[C@]2(C)[C@@H]([C@H](C)/C=C/[C@H](C)C(C)C)CC[C@@H]12` [Compound 46, Calciferol (Vtamin D2)] it was > 63 µM. The same measure, in the same setting: in the case of `COc1cc(NC(C)CCCN)c2ncccc2c1` (centres unmarked) [Compound 49, Primiquine] it was > 63 µM; in that of `Cc1cc2nc3c(=O)[nH]c(=O)nc-3n(C[C@H](O)[C@H](O)[C@H](O)COP(=O)(O)O)c2cc1C` [Compound 50, Riboflavin-5-phosphate sodium salt], > 63 µM; in that of `CC[n+]1c(-c2ccccc2)c2cc(N)ccc2c2ccc(N)cc21` [Compound 51, Ethidium bromide], > 63 µM.

Source of the values: publication PMC6450568 (Bioorganic & medicinal chemistry letters, 2019).
